Measured values published in patent publication US20160237059A1, “HETEROCYCLIC SUBSTITUTED TRIFLUOROMETHYL PYRIMIDINONES AND THEIR USE” (BAYER PHARMA AKTIENGESELLSCHAFT, priority 2013, published 2016).
pIC50: −log10 of the molar value.

Experiments:
Assay type in all cases: cell-based
human CCR2 = target: T1, human CCR2 (Homo sapiens, UniProt P41597); assay: Functional Ca2+ release test (B-1); conditions: Chem-1 cell line transfected with human CCR2; 50% inhibition of the MCP-1 effect, MCP-1 at EC50 (about 5 nM); in some cases means of several determinations
T1 construct: host or cells: Chem-1 cell line
T1 sequence (P41597 1-360 isoform P41597-2): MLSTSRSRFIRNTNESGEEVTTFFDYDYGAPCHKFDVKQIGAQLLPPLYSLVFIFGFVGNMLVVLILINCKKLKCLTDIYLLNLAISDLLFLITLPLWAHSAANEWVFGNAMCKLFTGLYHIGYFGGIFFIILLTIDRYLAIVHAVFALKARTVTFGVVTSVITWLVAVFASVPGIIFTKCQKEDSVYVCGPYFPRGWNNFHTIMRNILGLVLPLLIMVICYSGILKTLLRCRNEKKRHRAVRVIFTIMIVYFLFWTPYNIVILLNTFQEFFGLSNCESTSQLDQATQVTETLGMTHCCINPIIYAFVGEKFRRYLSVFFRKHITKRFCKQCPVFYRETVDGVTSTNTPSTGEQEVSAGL
How it was run: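 Inhibition of MCP-1-evoked Ca2+ release was measured over 120 s by fluorescence imaging in Fluo-4-loaded, human CCR2-transfected Chem-1 cells. Compounds, tested in 10-point 1:3.16 series, were added 10 min before agonist at its EC50 (typically about 5 nM). IC50 values were obtained by 4-parameter logistic fitting.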

murine CCR2 [1] = target: T2, murine CCR2 (Mus musculus, UniProt P51683); assay: Functional β-arrestin recruiting test with human MCP-1 (B-2a); conditions: U2OS β-arrestin cell line transfected with murine CCR2; agonist human MCP-1 at EC50 (about 3 nM); in some cases means of several determinations
T2 construct: host or cells: U2OS β-arrestin cell line
T2 sequence (P51683 whole entry): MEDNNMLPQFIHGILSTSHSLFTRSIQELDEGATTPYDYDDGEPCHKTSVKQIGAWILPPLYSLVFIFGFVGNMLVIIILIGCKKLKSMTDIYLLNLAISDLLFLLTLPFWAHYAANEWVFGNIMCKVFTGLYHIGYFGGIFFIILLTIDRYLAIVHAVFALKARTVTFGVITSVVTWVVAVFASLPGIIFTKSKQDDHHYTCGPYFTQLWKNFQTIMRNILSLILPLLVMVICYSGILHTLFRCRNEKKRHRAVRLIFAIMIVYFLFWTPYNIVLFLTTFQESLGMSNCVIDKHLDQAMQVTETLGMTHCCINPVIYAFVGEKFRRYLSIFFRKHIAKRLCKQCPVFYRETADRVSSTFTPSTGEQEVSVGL
Procedure: The antagonistic action of test substances on CCR2 was determined in a β-arrestin test. The PathHunter β-arrestin GPCR test system (DiscoveRx Corporation, Ltd.) is a cell-based functional method for detecting binding of β-arrestin to an activated receptor. The molecular basis is a […] complementation measured by the enzymatic conversion of a chemiluminescent substrate. The test cell used was a U2OS β-arrestin cell line transfected with murine CCR2 (93-0543C3, DiscoveRx Corporation, Ltd.).
The test substances were dissolved in dimethyl sulphoxide (DMSO) at a concentration of 10 mM and serially diluted with DMSO in steps of 1:3.16 for a 10-point dose/activity analysis. According to the desired test concentrations, the substances were pre-diluted in Tyrode with 2 mM CaCl2 and 0.05% BSA.
The cells, cultivated in MEM Eagle (supplemented with 10% FCS, 50 U/ml of penicillin, 50 μg/ml of streptomycin, 250 μg/ml of hygromycin and 500 μg/ml of geniticin), were sown at 2000 cells/25 μl in 384 well, μCLEAR/black cell culture plates from Greiner (#781092) and incubated at 37° C. for 24 h. The sowing medium consisted of Opti-MEM (supplemented with 1% FCS, 50 U/ml of penicillin and 50 μg/ml of streptomycin). The cells were pre-incubated for 10 min with 10 μl of the test substances diluted in buffer, and 10 μl of agonist solution [human MCP-1 (PeproTech, #300-04) in Tyrode with 0.05% BSA) were then added. The human MCP-1 was employed at the concentration which corresponds to the EC50 which had been determined in a preliminary test (usually about 3 nM). After 90 min of incubation at 37° C., the solution was removed, and recruitment of β-arrestin to CCR2 was detected with the aid of the PathHunter detection reagent (93-001, DiscoveRx Corporation, Ltd.) according to the instructions of the manufacturer. Luminescence was measured after an incubation time of 60 min using a proprietary luminescence imaging measuring instrument. The molar concentration of the test substance which caused 50% inhibition of the MCP-1 effect (IC50) was determined using a 4-parameter logistic function (Hill function).

murine CCR2 [2] = target: T2, murine CCR2; assay: Functional β-arrestin recruiting test with murine MCP-1 (B-2b); conditions: U2OS β-arrestin cell line transfected with murine CCR2; agonist murine MCP-1; in some cases means of several determinations
How it was run: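 In a PathHunter β-galactosidase complementation assay, U2OS cells expressing murine CCR2 were preincubated 10 min with compound (10-point, 1:3.16 dilutions), then challenged with murine MCP-1 at its predetermined EC50 for 90 min at 37 °C. Luminescence was read after 60 min, and IC50 was fitted with a 4-parameter Hill function.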

pIC50 (human CCR2) | pIC50 (murine CCR2 [1]) | pIC50 (murine CCR2 [2]) | Compound
8.08 | 6.82 |  | Cn1ncc(-c2nc(C(F)(F)F)c(Oc3ccc(Cl)c(C(F)(F)F)c3)c(=O)[nH]2)c1N [Example 67, 2-(5-amino-1-methyl-1H-pyrazol-4-yl)-5-[4-chloro-3-(trifluoromethyl)phenoxy]-6-(trifluoromethyl)pyrimidin-4(3H)-one]
7.19 | 6.04 |  | COc1cccc(Nc2nc(C(F)(F)F)c(Oc3ccc(Cl)c(C(F)(F)F)c3)c(=O)[nH]2)n1 [Example 100, 5-[4-Chloro-3-(trifluoromethyl)phenoxy]-2-[(6-methoxypyridin-2-yl)amino]-6-(trifluoromethyl)pyrimidin-4(3H)-one]
8.32 | 6.39 |  | 5-(3,4-dichlorobenzyl-2-(2-methoxypyridin-3-yl)-6-(trifluoromethyl)pyrimidin-4(3H)-one [Example 41]
7.34 | 6.19 |  | O=c1[nH]c(-c2cc(O)ccn2)nc(C(F)(F)F)c1Oc1ccc(Cl)c(C(F)(F)F)c1 [Example 33, 5-[4-chloro-3-(trifluoromethyl)phenoxy]-2-(4-hydroxypyridin-2-yl)-6-(trifluoromethyl)pyrimidin-4(3H)-one]
7.29 | 5.82 |  | COc1ccc2nc(-c3nc(C(F)(F)F)c(Oc4ccc(Cl)c(Cl)c4)c(=O)[nH]3)ccc2c1 [Example 177, 5-(3,4-dichlorophenoxy)-2-(6-methoxyquinolin-2-yl)-6-(trifluoromethyl)pyrimidin-4(3H)-one]
7.59 |  | 5.60 | Cn1nc(-c2nc(C(F)(F)F)c(Oc3ccc(Cl)c(Cl)c3)c(=O)[nH]2)c2cccnc21 [Example 205]
8.57 |  | 6.82 | CNc1cccc(-c2nc(C(F)(F)F)c(Oc3ccc(Cl)c(C(F)(F)F)c3)c(=O)[nH]2)n1 [Example 167, 5-[4-chloro-3-(trifluoromethyl)phenoxy]-2-[6-(methylamino)pyridin-2-yl]-6-(trifluoromethyl)pyrimidin-4(3H)-one]
8.82 |  | 6.52 | O=c1[nH]c(-c2ncccc2Cl)nc(C(F)(F)F)c1Cc1ccc(Cl)cc1 [Example 211]
10.00 |  | 7.68 | Cc1cc(Oc2c(C(F)(F)F)nc(-c3cc[nH]n3)[nH]c2=O)ccc1Cl [Example 223]
8.48 |  | 6.61 | Cn1nc(-c2nc(C(F)(F)F)c(Oc3ccc(Cl)c(C(F)(F)F)c3)c(=O)[nH]2)c2c(Cl)cccc21 [Example 142, 2-(4-chloro-1-methyl-1H-indazol-3-yl)-5-[4-chloro-3-(trifluoromethyl)phenoxy]-6-(trifluoromethyl)pyrimidin-4(3H)-one]
7.43 |  | 5.71 | Nc1ncc(-c2nc(C(F)(F)F)c(Oc3ccc(Cl)c(Cl)c3)c(=O)[nH]2)cn1 [Example 154, 2′-amino-5-(3,4-dichlorophenoxy)-6-(trifluoromethyl)-2,5′-bipyrimidin-4(3H)-one]
7.96 |  | 6.12 | CSc1ccnc(-c2nc(C(F)(F)F)c(Oc3ccc(Cl)c(Cl)c3)c(=O)[nH]2)c1 [Example 192, 5-(3,4-dichlorophenoxy)-2-[4-(methylsulphanyl)pyridin-2-yl]-6-(trifluoromethyl)pyrimidin-4(3H)-one]
8.59 |  | 5.77 | Cc1cnc(-c2nc(C(F)(F)F)c(Oc3ccc(Cl)c(Cl)c3)c(=O)[nH]2)cc1C [Example 212]
8.19 |  | 6.26 | COCc1cc(-c2nc(C(F)(F)F)c(Oc3ccc(Cl)c(Cl)c3)c(=O)[nH]2)no1 [Example 222]
9.52 |  | 7.57 | O=c1[nH]c(-c2ccsn2)nc(C(F)(F)F)c1Oc1ccc(Cl)c(C(F)(F)F)c1 [Example 234]
7.60 |  | 5.92 | CNc1ccnc(-c2nc(C(F)(F)F)c(Oc3ccc(Cl)c(Cl)c3)c(=O)[nH]2)c1 [Example 168, 5-(3,4-dichlorophenoxy)-2-[4-(methylamino)pyridin-2-yl]-6-(trifluoromethyl)pyrimidin-4(3H)-one]
9.00 |  | 6.98 | COc1conc1-c1nc(C(F)(F)F)c(Oc2ccc(Cl)c(C(F)(F)F)c2)c(=O)[nH]1 [Example 180, 5-[4-chloro-3-(trifluoromethyl)phenoxy]-2-(4-methoxy-1,2-oxazol-3-yl)-6-(trifluoromethyl)pyrimidin-4(3H)-one]
7.92 |  | 6.59 | C[S+]([O-])c1cccnc1-c1nc(C(F)(F)F)c(Oc2ccc(Cl)c(C(F)(F)F)c2)c(=O)[nH]1 (stereo not drawn) [Example 265]
9.22 |  | 6.96 | CC(=O)Nc1ccc(-c2nc(C(F)(F)F)c(Oc3ccc(Cl)c(C(F)(F)F)c3)c(=O)[nH]2)nc1 [Example 199]
7.42 |  | 5.87 | O=c1[nH]c(-n2cncn2)nc(C(F)(F)F)c1Oc1ccc(Cl)c(Cl)c1 [Example 255, 5-(3,4-Dichlorophenoxy)-2-(1H-1,2,4-triazol-1-yl)-6-(trifluoromethyl)pyrimidin-4(3H)-one]
7.82 |  | 6.21 | COc1nc(N)n(-c2nc(C(F)(F)F)c(Oc3ccc(Cl)c(Cl)c3)c(=O)[nH]2)n1 [Example 254]
9.40 |  | 7.36 | O=c1[nH]c(-c2ccon2)nc(C(F)(F)F)c1Oc1ccc(Cl)c(C(F)(F)F)c1 [Example 230]
6.62 |  | 5.37 | O=c1[nH]c(-n2cc(C(F)(F)F)cn2)nc(C(F)(F)F)c1Oc1ccc(Cl)c(Cl)c1 [Example 253]
9.52 |  | 8.08 | O=c1[nH]c(-c2ncccc2Br)nc(C(F)(F)F)c1Oc1ccc(Cl)c(C(F)(F)F)c1 [Example 182, 2-(3-bromopyridin-2-yl)-5-[4-chloro-3-(trifluoromethyl)phenoxy]-6-(trifluoromethyl)pyrimidin-4(3H)-one]
9.15 |  | 6.64 | O=c1[nH]c(-c2n[nH]c3ccccc23)nc(C(F)(F)F)c1Oc1ccc(Cl)c(Cl)c1 [Example 139, 5-(3,4-Dichlorophenoxy)-2-(1H-indazol-3-yl)-6-(trifluoromethyl)pyrimidin-4(3H)-one]
8.04 |  | 6.55 | O=c1[nH]c(-c2ncccc2OC(F)(F)F)nc(C(F)(F)F)c1Oc1ccc(Cl)c(C(F)(F)F)c1 [Example 204]
8.39 |  | 6.03 | CC(C)Oc1cnn(-c2nc(C(F)(F)F)c(Oc3ccc(Cl)c(Cl)c3)c(=O)[nH]2)c1 [Example 250]
8.77 |  | 6.23 | COc1cccnc1-c1nc(C(F)(F)F)c(Oc2ccc(C)c(Cl)c2)c(=O)[nH]1 [Example 196, 5-(3-chloro-4-methylphenoxy)-2-(3-methoxypyridin-2-yl)-6-(trifluoromethyl)pyrimidin-4(3H)-one]
8.74 |  | 7.14 | COc1conc1-c1nc(C(F)(F)F)c(Oc2ccc(Cl)c(Cl)c2)c(=O)[nH]1 [Example 179, 5-(3,4-dichlorophenoxy)-2-(4-methoxy-1,2-oxazol-3-yl)-6-(trifluoromethyl)pyrimidin-4(3H)-one]

Compound | pIC50 (human CCR2) | pIC50 (murine CCR2 [1]) | pIC50 (murine CCR2 [2])
CC(C)(C)Oc1ccnc(-c2nc(C(F)(F)F)c(Oc3ccc(Cl)c(Cl)c3)c(=O)[nH]2)c1 [Example 159, 2-(4-tert-butoxypyridin-2-yl)-5-(3,4-dichlorophenoxy)-6-(trifluoromethyl)pyrimidin-4(3H)-one] | 7.21 |  | 5.61
